Measurements as given in PMC9611758, “Bioactive Platinum(IV) Complexes Incorporating Halogenated Phenylacetates” (Molecules, 2022).
Entries after “also recorded” stand apart in the source; their conditions may differ. Like-named read-outs stand apart in the source and are kept apart here.

Assays:
H460 lung [1] = system: H460 lung; design: method as in PMID 36142383; conditions: MTT assay, 72 h; cited from earlier work
A431 skin [2] = system: A431 skin; design: method as in PMID 36142383; conditions: MTT assay, 72 h; cited from earlier work
[3] = system: ADDP-resistant ovarian variant; design: method as in PMID 36142383; conditions: MTT assay, 72 h; cited from earlier work
MIA pancreas [4] = system: MIA pancreas; design: method as in PMID 36142383; conditions: MTT assay, 72 h; cited from earlier work
MCF-7 breast [5] = system: MCF-7 breast; design: method as in PMID 36142383; conditions: MTT assay, 72 h; cited from earlier work
Du145 prostate [6] = system: Du145 prostate; design: method as in PMID 36142383; conditions: MTT assay, 72 h; cited from earlier work
SJ-G2 glioblastoma [7] = system: SJ-G2 glioblastoma; design: method as in PMID 36142383; conditions: MTT assay, 72 h; cited from earlier work
A2780 ovarian [8] = system: A2780 ovarian; design: method as in PMID 36142383; conditions: MTT assay, 72 h; cited from earlier work
U87 glioblastoma [9] = system: U87 glioblastoma; design: method as in PMID 36142383; conditions: MTT assay, 72 h; cited from earlier work
HT29 colon [10] = system: HT29 colon; design: method as in PMID 36142383; conditions: MTT assay, 72 h; cited from earlier work
BE2-C neuroblastoma [11] = system: BE2-C neuroblastoma; design: method as in PMID 36142383; conditions: MTT assay, 72 h; cited from earlier work
HT29 colon cells [12] = system: HT29 colon cells; design: method as in PMID 36142383; conditions: cited from earlier work
panel of cell lines [13] = assay: MTT growth inhibition assay, whole panel of cell lines; format: cell-based, human; conditions: for GI50: average over the cell lines tested, MTT assay, 72 h
[14] = system: non-tumour derived MCF10A breast line; design: method as in PMID 36142383; conditions: MTT assay, 72 h; cited from earlier work
panel of cell lines [15] = system: panel of cell lines; design: method as in PMID 36142383; conditions: average over the cell lines tested, MTT assay, 72 h; cited from earlier work
BE2-C neuroblastoma [16] = assay: MTT growth inhibition assay, BE2-C; format: cell-based, human; conditions: 72 h
U87 glioblastoma [17] = assay: MTT growth inhibition assay, U87; format: cell-based, human; conditions: 72 h
H460 lung [18] = assay: MTT growth inhibition assay, H460; format: cell-based, human; conditions: 72 h
HT29 colon cells [19] = assay: ROS detection assay (DCFH-DA); format: cell-based, human; conditions: HT29 colon cells, treated at GI50 concentration (TBHP positive control 20 μM)
[20] = system: ADDP-resistant ovarian variant; assay: MTT growth inhibition assay, ADDP; format: cell-based, human; conditions: MTT assay, 72 h
HT29 colon [21] = assay: MTT growth inhibition assay, HT29; format: cell-based, human; conditions: MTT assay, 72 h
MCF-7 breast [22] = assay: MTT growth inhibition assay, MCF-7; format: cell-based, human; conditions: MTT assay, 72 h
A431 skin [23] = assay: MTT growth inhibition assay, A431; format: cell-based, human; conditions: 72 h
[24] = system: non-tumour derived MCF10A breast line; assay: MTT growth inhibition assay, MCF10A; format: cell-based, human; conditions: 72 h
SJ-G2 glioblastoma [25] = assay: MTT growth inhibition assay, SJ-G2; format: cell-based, human; conditions: 72 h
MIA pancreas [26] = assay: MTT growth inhibition assay, MIA; format: cell-based, human; conditions: 72 h
A2780 ovarian [27] = assay: MTT growth inhibition assay, A2780; format: cell-based, human; conditions: 72 h
Du145 prostate [28] = assay: MTT growth inhibition assay, Du145; format: cell-based, human; conditions: MTT assay, 72 h
[29] = Reduction experiments with AsA by 1H-NMR and 1D-195Pt-NMR; format: physicochemical; conditions: D2O, 37 °C; for T50% (approximate time at which 50% reduction occurs): 10 mM PBS (~7.4 pH), 1H-NMR; for extent of reduction 1 h after the final 1H-NMR experiment (1D-195Pt-NMR): PBS, regions −2800 and 400 ppm
Text: Platinum(IV) complexes are reduced to their platinum(II) precursors by intracellular biological reducing agents such as AsA or GSH in tumour cells. However, the precise mechanism by which reduction occurs is not fully understood. In this paper, reduction reaction experiments were undertaken on the synthesised platinum(IV) complexes, 1–8, with the aid of ^1H-NMR and 1D-^195Pt-NMR spectroscopy. The method used for the reduction reaction experiments was adapted from the literature without modifications. A total of 10 mM PBS (~7.4 pH) was selected as media, and AsA was used as the biological reducing agent to investigate the reduction property of 1–8. Prior to the reduction reaction experiments, a control was prepared where each metal complex was dissolved with PBS in D2O. 1D-^195Pt-NMR was measured within the regions of −2800 and 400 ppm (30 min per region), at 37 °C. This was undertaken to confirm that the PBS would not interfere with the reduction process of the metal complexes. […] The approximate time points for the studied complexes at which an estimated 50% reduction had occurred, in the presence of AsA, as represented by T50%, are summarised in Table 6.
The reduction properties of 1–8 were monitored using ^1H-NMR and 1D-^195Pt-NMR spectroscopy on a 400 MHz Bruker (Melbourne, VIC, Australia) Avance Spectrometer. A sequence of ^1H-NMR experiments was carried out for 1 h at 37 °C, followed by 1D-^195Pt-NMR within the regions of −2800 and 400 ppm. An amount of 10 mM PBS (~7.4 pH) was transferred to a vial and reduced to dryness through rotary evaporation. AsA (~1 mg) was combined with the metal complex (~5 mg) and transferred to the vial containing the dried PBS. A total of 600 µL of D2O was then added to the vial to dissolve the complex, AsA, and the PBS together.

[30] = Lipophilicity by HPLC (log kw); format: physicochemical; conditions: for log kw: chromatographic lipophilicity index, extrapolated to 100% d.i.H2O; for log kw (y-intercept of log k versus [CH3CN] % plot, Figure S80): linear fit
Text: For lipophilicity measurements, HPLC was utilised instead of the traditional shake-flask method, as described previously. Recent studies have also reported the efficiency of HPLC in measuring the lipophilicity of compounds [79, 80]. Each complex was eluted under several isocratic ratios. A standard curve was generated to calculate the log value of the capacity factor (log k) according to Equation (1). Following Equation (2), the percentage of organic solvent (CH3CN) in the mobile phase from each isocratic run was plotted against log kw (Figure S80). Log kw is the chromatographic lipophilicity index or measure of lipophilicity of the complex, so a higher value corresponds to greater lipophilicity. Because the selected axial ligands in this study contain F, Cl, Br, and I, it was only appropriate to determine the influence of the halogens on the overall lipophilicity of the platinum(IV) complexes. […] Conversely, the least lipophilic complex was the phen derivative containing 4-FPA, 3, with a log kw of 0.25. Furthermore, for the phen derivatives, the order of increasing lipophilicity was 3 > 1 > 5 > 7, which corresponds to the order of increasing size of the halogens, F > Cl > Br > I. This pattern was also observed with the 5,6-Me2phen derivatives (4 > 2 > 6 > 8), thereby confirming that the halogens increased the order of lipophilicity accordingly based on their size.
For lipophilicity measurements, analytical HPLC was utilised. Elution profiles were acquired on an Agilent (Melbourne, VIC, Australia) Technologies 1260 Infinity instrument equipped with a Phenomenex Onyx^TM Monolithic C18-reverse phase column (100 × 4.6 mm, 5 µm pore size) (Sydney, NSW, Australia). The mobile phase consisted of solvents, A (0.06% TFA in d.i.H2O) and B (0.06% TFA in CH3CN/d.i.H2O (90:10)). Potassium iodide was used as an external dead volume marker to determine the dead time of the column. Retention times (TR) were measured at varying isocratic ratios ranging from 30 to 36% of solvent B at 1 mL·min^−1 mL. An injection volume of 10 µL was utilised. Capacity factors were determined according to Equation (1):(1) k=(TR−T0)/T0 where k is the capacity factor, TR is the retention time of the analyte, and T0 represents the dead time. A minimum of four different mobile compositions were used for each complex to calculate k. A linear plot was generated of log k against the concentration of CH3CN in the mobile phase to determine the value of log kw expressed by Equation (2):(2) logk=Sφ+logkw where S is the slope, φ is the concentration of the CH3CN in the mobile phase, and log kw represents the capacity factor of the complex in 100% d.i.H2O. Extrapolation of this linear plot to the y-intercept indicates the log kw value.

SMILES | GI50 (H460 lung [1]) [nM] | GI50 (A431 skin [2]) [nM] | GI50 [3] [nM] | GI50 (MIA pancreas [4]) [nM] | GI50 (MCF-7 breast [5]) [nM] | GI50 (Du145 prostate [6]) [nM] | GI50 (SJ-G2 glioblastoma [7]) [nM] | GI50 (A2780 ovarian [8]) [nM] | GI50 (U87 glioblastoma [9]) [nM] | GI50 (HT29 colon [10]) [nM] | GI50 (BE2-C neuroblastoma [11]) [nM] | GI50 [14] [nM] | GI50 (BE2-C neuroblastoma [16]) [nM] | GI50 (U87 glioblastoma [17]) [nM] | GI50 (H460 lung [18]) [nM] | GI50 (panel of cell lines [13]) [nM] | ROS production 24 h (HT29 colon cells [19]) [RFU] | ROS production 48 h (HT29 colon cells [19]) [RFU] | ROS production 72 h (HT29 colon cells [19]) [RFU] | GI50 [20] [nM] | further results
O=C1[O][Pt]2([NH][C@@H]3CCCC[C@H]3[NH]2)[O]C1=O (relative stereo) [Oxaliplatin, trans-L-(1R,2R-diaminocyclohexane) oxalatoplatinum(II)] | 1600 ± 100 | 4100 ± 500 | 800 ± 100 | 900 ± 200 | 500 ± 100 | 2900 ± 400 | 3000 ± 1200 | 160 ± 100 | 1800 ± 200 | 900 ± 200 | 900 ± 200 |  |  |  |  |  |  |  |  |  | 
Cc1c(C)c2c3c4c1=CC=C[N]4[Pt+2]([OH])([OH])[N]3C=CC=2.N[C@H]1CCCC[C@@H]1N [56MESS(IV)(OH)2] | 190 ± 150 | 120 ± 22 | 170 ± 120 | 43 ± 2.5 | 480 ± 140 | 15 ± 2.6 | 210 ± 45 | 59 ± 7 | 190 ± 23 | 36 ± 7 | 240 ± 22 | 61 ± 7 |  |  |  |  |  |  |  |  | ROS production 24 h (HT29 colon cells [12]; 24 h): 259 ± 3 RFU; ROS production 48 h (HT29 colon cells [12]; 48 h): 356 ± 11 RFU; ROS production 72 h (HT29 colon cells [12]; 72 h): 438 ± 7 RFU; fold difference in average GI50 versus corresponding platinum(II) precursor (panel of cell lines [13]; platinum(IV) precursor less cytotoxic than platinum(II) precursor, all cell lines): 4 fold; GI50 (panel of cell lines [15]): 151 ± 50 nM
N.N.O=C([O-])C1(C(=O)[O-])CCC1.[Pt+2] [Carboplatin, cis-diammine(1,1-cyclobutanedicarboxylato) platinum(II)] | 14000 | 24000 | > 50000 | > 50000 | > 50000 | 15000 | 5700 ± 200 | 9200 ± 2900 | > 50000 | > 50000 | 19000 | > 50000 |  |  |  |  |  |  |  |  | 
N[C@H]1CCCC[C@@H]1N.O=C(Cc1ccc(I)cc1)[O][Pt+2]1([OH])[N]2C=CC=c3ccc4c(c32)[N]1C=CC=4 [Complex 7, [Pt^IV(phen)(SS-DACH)(4-IPA)(OH)]^2+] |  |  |  |  |  |  |  |  |  |  |  |  | 680 ± 38 | 1010 ± 95 | 380 ± 59 | 432 ± 60 | 211 ± 9.1 | 281 ± 12 | 322 ± 17 | 280 ± 24 | GI50 (HT29 colon [21]): 220 ± 33 nM; GI50 (MCF-7 breast [22]): 490 ± 134 nM; GI50 (A431 skin [23]): 500 ± 180 nM; GI50 [24]: 280 ± 30 nM; GI50 (SJ-G2 glioblastoma [25]): 590 ± 23 nM; GI50 (MIA pancreas [26]): 360 ± 40 nM; GI50 (A2780 ovarian [27]): 280 ± 42 nM; GI50 (Du145 prostate [28]): 110 ± 25 nM; T50% (approximate time at which 50% reduction occurs) [29]: 30 min; extent of reduction 1 h after the final 1H-NMR experiment (1D-195Pt-NMR) [29]: partial reduction; also recorded: traces of platinum(IV) species were still observed; log kw [30]: 0.90; log kw (y-intercept of log k versus [CH3CN] % plot, Figure S80) [30]: 0.895
Cc1c(C)c2c3c4c1=CC=C[N]4[Pt+2]([OH])([O]C(=O)Cc1ccc(I)cc1)[N]3C=CC=2.N[C@H]1CCCC[C@@H]1N [Complex 8, [Pt^IV(5,6-Me2phen)(SS-DACH)(4-IPA)(OH)]^2+] |  |  |  |  |  |  |  |  |  |  |  |  | 650 ± 81 | 900 ± 58 | 390 ± 33 | 387 ± 50 | 345 ± 19.3 | 406 ± 14 | 466 ± 13 | 230 ± 15 | GI50 (HT29 colon [21]): 178 ± 31 nM; GI50 (MCF-7 breast [22]): 420 ± 62 nM; GI50 (A431 skin [23]): 430 ± 160 nM; GI50 [24]: 260 ± 22 nM; GI50 (SJ-G2 glioblastoma [25]): 520 ± 29 nM; GI50 (MIA pancreas [26]): 300 ± 55 nM; GI50 (A2780 ovarian [27]): 260 ± 45 nM; GI50 (Du145 prostate [28]): 100 ± 21 nM; T50% (approximate time at which 50% reduction occurs) [29]: 5 to 10 min; extent of reduction 1 h after the final 1H-NMR experiment (1D-195Pt-NMR) [29]: complete reduction; log kw [30]: 1.19; log kw (y-intercept of log k versus [CH3CN] % plot, Figure S80) [30]: 1.1909
